Experimental data: ChEMBL document CHEMBL5465560, “Selectivity Literature for EUbOPEN Chemogenomic Library” (2024)
One block for each compound: values may come before it.

Key:
[1] = biological target: Tyrosine-protein kinase Fgr (Homo sapiens) (UniProt P09769); settings: at 10 µM
[2] = biological target: Casein kinase I isoform alpha (Homo sapiens, UniProt P48729); experiment: Selectivity interaction (Ambit KINOMEscan and KiNATiv profiling in Jurkat cells) EUB0000090b CSNK1A1; type: cell-based; settings: at 1 µM
[3] = biological target: T1, Interleukin-1 receptor-associated kinase 3 (Homo sapiens) (UniProt Q9Y616); experiment: Selectivity interaction (Ambit KINOMEscan and KiNATiv profiling in Jurkat cells) EUB0000090b IRAK3; type: cell-based; settings: at 1 µM
T1 sequence (whole entry): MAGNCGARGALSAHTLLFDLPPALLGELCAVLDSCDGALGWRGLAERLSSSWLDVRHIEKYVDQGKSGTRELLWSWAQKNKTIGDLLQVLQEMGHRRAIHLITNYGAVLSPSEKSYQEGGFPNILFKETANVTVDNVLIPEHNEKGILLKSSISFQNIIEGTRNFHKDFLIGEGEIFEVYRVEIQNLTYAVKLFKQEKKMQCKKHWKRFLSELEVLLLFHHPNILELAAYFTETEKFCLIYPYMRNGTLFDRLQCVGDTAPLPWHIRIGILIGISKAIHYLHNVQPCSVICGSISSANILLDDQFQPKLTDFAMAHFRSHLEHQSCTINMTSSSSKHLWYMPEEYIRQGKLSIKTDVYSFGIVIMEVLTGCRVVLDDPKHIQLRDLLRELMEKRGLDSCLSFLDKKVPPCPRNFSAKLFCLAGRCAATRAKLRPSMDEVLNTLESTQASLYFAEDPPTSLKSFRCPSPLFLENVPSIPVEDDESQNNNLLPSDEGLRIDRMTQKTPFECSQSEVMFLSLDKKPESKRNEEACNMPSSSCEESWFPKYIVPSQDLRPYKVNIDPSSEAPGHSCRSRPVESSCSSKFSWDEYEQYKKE

[4] = biological target: T2, Inhibitor of nuclear factor kappa-B kinase subunit epsilon (Homo sapiens) (UniProt Q14164); experiment: Selectivity interaction (KinomeScan (DiscoverX)) EUB0000655a IKBKE; settings: at 10 µM
T2 sequence (whole entry): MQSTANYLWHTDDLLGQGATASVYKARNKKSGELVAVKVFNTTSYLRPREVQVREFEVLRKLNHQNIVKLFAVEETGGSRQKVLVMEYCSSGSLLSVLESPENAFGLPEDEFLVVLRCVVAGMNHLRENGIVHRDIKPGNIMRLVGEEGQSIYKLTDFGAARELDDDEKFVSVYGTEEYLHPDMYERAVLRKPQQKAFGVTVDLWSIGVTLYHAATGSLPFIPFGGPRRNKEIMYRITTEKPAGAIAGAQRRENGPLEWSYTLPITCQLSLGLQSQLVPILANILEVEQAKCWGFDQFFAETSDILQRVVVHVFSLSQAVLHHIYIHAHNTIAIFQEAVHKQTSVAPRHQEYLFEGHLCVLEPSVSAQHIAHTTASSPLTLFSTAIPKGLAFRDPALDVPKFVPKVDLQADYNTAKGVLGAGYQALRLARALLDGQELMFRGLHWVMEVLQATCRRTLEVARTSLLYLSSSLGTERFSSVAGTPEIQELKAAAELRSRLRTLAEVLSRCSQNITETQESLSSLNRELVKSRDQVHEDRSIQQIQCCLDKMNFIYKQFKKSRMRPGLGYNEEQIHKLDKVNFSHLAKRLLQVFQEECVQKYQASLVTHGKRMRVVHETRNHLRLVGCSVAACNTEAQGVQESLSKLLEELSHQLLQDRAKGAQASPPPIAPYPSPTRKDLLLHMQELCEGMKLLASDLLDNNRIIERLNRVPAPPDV

[5] = biological target: Cyclin-dependent kinase 14 (Homo sapiens) (UniProt O94921); experiment: Selectivity interaction (KinomeScan (DiscoverX)) EUB0000045b CDK14
[6] = biological target: T3, Serine/threonine-protein kinase PLK4 (Homo sapiens) (UniProt O00444); experiment: Selectivity interaction (KinomeScan (DiscoverX)) EUB0000045b PLK4
T3 sequence (whole entry): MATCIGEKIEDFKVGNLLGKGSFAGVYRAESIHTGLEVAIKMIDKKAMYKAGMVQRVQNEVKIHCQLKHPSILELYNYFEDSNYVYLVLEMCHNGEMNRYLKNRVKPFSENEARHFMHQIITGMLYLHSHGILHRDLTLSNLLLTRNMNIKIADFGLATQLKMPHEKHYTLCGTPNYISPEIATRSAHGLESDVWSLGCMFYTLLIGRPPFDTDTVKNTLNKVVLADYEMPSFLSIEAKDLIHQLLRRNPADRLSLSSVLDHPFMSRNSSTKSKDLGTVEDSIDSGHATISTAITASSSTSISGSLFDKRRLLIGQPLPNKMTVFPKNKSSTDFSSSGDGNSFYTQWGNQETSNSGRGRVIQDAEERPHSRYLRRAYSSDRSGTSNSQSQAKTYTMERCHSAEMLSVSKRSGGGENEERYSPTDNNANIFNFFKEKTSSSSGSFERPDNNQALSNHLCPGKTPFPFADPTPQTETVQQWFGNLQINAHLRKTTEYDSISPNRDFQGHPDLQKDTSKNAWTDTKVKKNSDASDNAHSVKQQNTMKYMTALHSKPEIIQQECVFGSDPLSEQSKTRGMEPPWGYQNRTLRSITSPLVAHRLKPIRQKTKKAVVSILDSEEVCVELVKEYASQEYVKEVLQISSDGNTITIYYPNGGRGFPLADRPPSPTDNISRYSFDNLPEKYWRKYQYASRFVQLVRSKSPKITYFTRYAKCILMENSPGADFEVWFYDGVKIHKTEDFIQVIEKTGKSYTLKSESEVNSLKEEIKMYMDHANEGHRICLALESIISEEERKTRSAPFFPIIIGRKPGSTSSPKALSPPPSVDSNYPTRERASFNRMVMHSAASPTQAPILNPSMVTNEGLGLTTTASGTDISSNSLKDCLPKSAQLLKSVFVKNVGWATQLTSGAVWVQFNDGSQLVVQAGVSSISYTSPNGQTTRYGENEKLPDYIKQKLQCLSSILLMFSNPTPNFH

[7] = biological target: Calcium/calmodulin-dependent protein kinase type II subunit gamma (Homo sapiens) (UniProt Q13555); experiment: Selectivity interaction (KinomeScan (DiscoverX)) EUB0000595a CAMK2G; settings: at 10 µM
[8] = biological target: Serine/threonine-protein kinase WNK2 (Homo sapiens) (UniProt Q9Y3S1); experiment: Selectivity interaction (ActivX KiNativ screen (kinase selectivity in THP-1 cell lysates)) EUB0000639a WNK2; type: subcellular; settings: lysate, at 0.01 µM
PXR (NR1I2) = PXR (NR1I2) (Homo sapiens, UniProt O75469); experiment: Selectivity interaction (Panel of kinases, GPCRs, ion channels and transporters (enzymatic assay)) EUB0000266bCl NR1I2
[9] = biological target: Serine/threonine-protein kinase B-raf (Homo sapiens) (UniProt P15056); experiment: Selectivity interaction (KinomeScan (DiscoverX)) EUB0000092b BRAF; settings: at 10 µM
[10] = biological target: Mitogen-activated protein kinase 3 (Homo sapiens, UniProt P27361); experiment: Selectivity interaction (Kinase panel (Z-LYTE Assay)) EUB0001632a MAPK3; settings: at 10 µM
Mitogen-activated protein kinase 3, sequence (P27361 whole entry): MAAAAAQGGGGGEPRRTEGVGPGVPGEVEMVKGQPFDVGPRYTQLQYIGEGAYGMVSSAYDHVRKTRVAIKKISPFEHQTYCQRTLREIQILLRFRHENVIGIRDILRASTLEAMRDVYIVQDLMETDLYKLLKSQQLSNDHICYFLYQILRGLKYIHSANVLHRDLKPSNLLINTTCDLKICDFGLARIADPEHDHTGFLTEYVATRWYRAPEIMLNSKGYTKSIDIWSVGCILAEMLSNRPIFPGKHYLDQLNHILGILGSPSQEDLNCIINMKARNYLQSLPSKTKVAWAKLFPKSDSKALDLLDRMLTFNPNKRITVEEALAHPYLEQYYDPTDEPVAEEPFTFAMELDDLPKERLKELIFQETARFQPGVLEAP

Cyclin-dependent kinase 14 (Homo sapiens), sequence (O94921 whole entry): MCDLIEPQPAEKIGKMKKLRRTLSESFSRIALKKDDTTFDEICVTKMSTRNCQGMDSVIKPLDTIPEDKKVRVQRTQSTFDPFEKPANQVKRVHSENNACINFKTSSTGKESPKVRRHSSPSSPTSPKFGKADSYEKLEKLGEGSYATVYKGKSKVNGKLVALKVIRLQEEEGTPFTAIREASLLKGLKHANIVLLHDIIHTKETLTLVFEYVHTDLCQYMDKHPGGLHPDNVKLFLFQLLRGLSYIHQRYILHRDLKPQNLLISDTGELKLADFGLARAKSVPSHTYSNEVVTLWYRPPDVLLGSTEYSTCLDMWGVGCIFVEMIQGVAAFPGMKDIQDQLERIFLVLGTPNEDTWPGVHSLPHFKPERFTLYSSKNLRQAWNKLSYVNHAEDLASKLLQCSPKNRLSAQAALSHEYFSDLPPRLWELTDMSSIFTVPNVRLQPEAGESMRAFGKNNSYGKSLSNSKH
Casein kinase I isoform alpha, sequence (P48729 2-337 limits assumed): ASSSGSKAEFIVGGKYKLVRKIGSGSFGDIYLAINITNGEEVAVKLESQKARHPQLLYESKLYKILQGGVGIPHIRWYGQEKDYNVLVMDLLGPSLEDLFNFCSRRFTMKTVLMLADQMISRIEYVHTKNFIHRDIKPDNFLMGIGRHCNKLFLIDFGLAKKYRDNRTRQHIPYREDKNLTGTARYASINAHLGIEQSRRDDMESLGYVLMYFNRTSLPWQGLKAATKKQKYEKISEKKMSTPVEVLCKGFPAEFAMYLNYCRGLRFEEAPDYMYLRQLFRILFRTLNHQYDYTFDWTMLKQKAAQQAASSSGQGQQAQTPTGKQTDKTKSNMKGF
Calcium/calmodulin-dependent protein kinase type II subunit gamma (Homo sapiens), sequence (Q13555 whole entry): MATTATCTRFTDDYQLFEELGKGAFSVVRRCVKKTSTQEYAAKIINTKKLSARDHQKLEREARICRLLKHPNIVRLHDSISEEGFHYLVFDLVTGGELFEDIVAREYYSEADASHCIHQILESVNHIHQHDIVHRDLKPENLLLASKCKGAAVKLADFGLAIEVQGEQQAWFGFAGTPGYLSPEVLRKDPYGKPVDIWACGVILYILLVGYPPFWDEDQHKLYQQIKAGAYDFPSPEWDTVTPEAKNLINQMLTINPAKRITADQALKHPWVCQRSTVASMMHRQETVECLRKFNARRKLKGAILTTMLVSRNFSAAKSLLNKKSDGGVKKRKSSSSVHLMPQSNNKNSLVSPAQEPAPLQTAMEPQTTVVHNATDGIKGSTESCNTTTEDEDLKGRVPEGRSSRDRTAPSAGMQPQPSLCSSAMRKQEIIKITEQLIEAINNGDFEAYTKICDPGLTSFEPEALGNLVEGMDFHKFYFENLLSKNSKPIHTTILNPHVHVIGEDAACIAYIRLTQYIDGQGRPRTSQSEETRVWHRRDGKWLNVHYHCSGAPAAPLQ
Tyrosine-protein kinase Fgr (Homo sapiens), sequence (P09769 2-529 limits assumed): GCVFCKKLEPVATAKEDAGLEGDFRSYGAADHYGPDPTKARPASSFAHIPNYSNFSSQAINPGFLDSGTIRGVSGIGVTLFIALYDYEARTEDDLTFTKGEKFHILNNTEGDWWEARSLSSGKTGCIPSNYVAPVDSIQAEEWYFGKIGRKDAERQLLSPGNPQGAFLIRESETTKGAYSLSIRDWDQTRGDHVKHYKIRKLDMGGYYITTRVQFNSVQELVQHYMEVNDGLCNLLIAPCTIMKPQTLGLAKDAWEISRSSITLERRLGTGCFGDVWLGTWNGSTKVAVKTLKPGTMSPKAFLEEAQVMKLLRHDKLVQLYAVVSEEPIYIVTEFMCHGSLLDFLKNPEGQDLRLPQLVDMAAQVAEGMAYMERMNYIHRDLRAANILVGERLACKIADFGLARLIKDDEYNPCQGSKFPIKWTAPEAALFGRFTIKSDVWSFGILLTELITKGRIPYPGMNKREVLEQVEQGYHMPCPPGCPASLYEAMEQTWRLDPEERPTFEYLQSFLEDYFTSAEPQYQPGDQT
Serine/threonine-protein kinase WNK2 (Homo sapiens), sequence (Q9Y3S1 whole entry): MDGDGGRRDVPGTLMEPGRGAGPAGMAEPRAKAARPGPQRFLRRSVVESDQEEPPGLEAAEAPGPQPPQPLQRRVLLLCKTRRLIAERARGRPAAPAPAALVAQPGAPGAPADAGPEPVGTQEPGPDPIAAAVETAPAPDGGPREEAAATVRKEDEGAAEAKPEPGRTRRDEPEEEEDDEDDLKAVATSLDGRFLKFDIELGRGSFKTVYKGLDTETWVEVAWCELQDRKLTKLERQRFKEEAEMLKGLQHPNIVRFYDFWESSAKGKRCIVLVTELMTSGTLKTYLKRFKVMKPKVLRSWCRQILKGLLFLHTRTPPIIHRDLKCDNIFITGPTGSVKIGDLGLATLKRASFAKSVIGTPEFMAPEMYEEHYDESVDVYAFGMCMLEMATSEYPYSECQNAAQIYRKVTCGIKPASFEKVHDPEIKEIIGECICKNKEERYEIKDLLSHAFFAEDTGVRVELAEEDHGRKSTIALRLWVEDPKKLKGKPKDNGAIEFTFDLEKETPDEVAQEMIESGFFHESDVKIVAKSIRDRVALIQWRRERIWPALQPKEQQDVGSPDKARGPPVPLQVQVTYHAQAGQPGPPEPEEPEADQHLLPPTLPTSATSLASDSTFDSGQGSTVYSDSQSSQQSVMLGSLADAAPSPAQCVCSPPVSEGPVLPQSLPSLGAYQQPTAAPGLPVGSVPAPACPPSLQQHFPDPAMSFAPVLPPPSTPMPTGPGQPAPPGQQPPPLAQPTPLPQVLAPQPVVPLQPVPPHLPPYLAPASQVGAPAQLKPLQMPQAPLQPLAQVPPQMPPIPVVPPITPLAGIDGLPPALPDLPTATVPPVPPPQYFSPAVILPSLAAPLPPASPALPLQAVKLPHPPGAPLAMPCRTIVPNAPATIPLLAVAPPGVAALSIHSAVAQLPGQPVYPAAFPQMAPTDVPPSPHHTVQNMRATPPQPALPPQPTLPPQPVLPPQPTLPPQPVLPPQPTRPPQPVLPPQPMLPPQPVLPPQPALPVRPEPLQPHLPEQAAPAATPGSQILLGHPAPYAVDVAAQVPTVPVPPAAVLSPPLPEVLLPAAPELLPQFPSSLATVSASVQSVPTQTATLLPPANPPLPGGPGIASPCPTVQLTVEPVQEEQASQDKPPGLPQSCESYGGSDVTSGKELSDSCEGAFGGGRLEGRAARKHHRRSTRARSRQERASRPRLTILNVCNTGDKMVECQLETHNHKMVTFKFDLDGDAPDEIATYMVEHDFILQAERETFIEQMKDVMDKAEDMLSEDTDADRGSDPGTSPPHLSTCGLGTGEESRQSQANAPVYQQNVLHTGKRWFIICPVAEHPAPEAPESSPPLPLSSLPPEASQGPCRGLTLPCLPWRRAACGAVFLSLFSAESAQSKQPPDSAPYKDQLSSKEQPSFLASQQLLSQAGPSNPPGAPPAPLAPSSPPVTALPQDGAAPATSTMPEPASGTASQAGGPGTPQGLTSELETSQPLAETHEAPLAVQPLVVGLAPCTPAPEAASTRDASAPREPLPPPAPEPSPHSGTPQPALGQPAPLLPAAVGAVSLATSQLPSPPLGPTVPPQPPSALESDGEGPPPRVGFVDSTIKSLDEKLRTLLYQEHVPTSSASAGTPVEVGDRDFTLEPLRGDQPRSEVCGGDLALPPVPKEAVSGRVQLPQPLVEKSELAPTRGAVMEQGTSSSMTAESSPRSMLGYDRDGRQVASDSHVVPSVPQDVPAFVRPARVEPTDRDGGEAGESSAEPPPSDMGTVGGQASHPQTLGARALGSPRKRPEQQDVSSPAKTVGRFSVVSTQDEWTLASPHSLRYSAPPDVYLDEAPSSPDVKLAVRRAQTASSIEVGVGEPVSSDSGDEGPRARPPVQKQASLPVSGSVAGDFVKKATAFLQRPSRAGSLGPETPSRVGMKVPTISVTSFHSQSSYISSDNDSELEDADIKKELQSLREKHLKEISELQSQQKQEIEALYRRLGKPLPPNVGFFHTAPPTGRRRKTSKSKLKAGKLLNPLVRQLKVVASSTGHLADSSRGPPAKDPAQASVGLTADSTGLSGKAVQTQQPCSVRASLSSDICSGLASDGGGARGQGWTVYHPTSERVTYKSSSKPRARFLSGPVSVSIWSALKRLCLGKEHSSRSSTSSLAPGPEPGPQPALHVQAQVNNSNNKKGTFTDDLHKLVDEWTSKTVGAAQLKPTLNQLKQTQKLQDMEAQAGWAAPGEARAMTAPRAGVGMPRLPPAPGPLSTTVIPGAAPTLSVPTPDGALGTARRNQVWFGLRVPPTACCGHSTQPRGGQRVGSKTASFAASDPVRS
PXR (NR1I2), sequence (O75469 whole entry): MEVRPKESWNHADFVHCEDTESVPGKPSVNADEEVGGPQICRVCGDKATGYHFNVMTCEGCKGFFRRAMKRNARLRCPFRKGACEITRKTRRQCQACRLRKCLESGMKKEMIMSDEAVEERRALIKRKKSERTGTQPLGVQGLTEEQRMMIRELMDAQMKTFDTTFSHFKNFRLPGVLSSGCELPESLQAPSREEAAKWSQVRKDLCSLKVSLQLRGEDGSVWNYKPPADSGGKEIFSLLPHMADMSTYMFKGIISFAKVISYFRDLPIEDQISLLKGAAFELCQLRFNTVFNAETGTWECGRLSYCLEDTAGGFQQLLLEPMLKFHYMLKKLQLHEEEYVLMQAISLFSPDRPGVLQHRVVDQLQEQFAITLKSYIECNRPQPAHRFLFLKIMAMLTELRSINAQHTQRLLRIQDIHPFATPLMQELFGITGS

% of control [1]: 100%
SMILES: CCN(CC)CCCCNc1ncc2cc(-c3cc(OC)cc(OC)c3)c(NC(=O)NC(C)(C)C)nc2n1

SMILES: CN(C)C/C=C/C(=O)Nc1ccc(C(=O)N2CCCC(Nc3ncc(Cl)c(-c4c[nH]c5ccccc45)n3)C2)cc1 (stereo not drawn)
% of control [2]: 51% | % of control [3]: 68%

SMILES: CN(C)CCOc1ccc(-c2nc(-c3ccncc3)c(-c3ccc4c(c3)CC/C4=N\O)[nH]2)cc1
% of control [4]: 85%

SMILES: C=CC(=O)Nc1cc(-n2c(=O)ccc3cnc4ccc(-c5ccc(NS(C)(=O)=O)cc5)cc4c32)ccc1C
% of control ([5]; at 1 µM): 100% | % of control ([5]; at 10 µM): 72% | % of control ([6]; at 1 µM): 100% | % of control ([6]; at 10 µM): 73%

SMILES: COCC(=O)NC/C=C/c1ccc2ncnc(Nc3ccc(Oc4ccc(C)nc4)c(C)c3)c2c1 [CP-724714]
% of control [7]: 94%

% of inhibition [8]: 3.3%
SMILES: CC[C@@H]1[C@H](F)C(=O)N[C@@H]1COc1nccc2cc(C(N)=O)c(OC)cc12 [ZIMLOVISERTIB]

XC50 (PXR (NR1I2)): > 50.1 µM
SMILES: CCn1c(-c2nc3cc(C(=O)N4CCCC(N)C4)ccc3n2C)cc2ccccc21 (stereo not drawn)

SMILES: CCC(=O)N1CCN(c2ccc(-n3c(=O)ccc4cnc5ccc(-c6cnc7ccccc7c6)cc5c43)cc2C(F)(F)F)CC1
% of control [9]: 59%

% of control [10]: -1.61%
SMILES: Cn1cc(-n2cnc3c(NCc4nc5cc(Cl)c(Cl)cc5[nH]4)nc(N4CCOCC4)nc32)cn1
